Measurements from publication PMC12656566, “Toxicokinetic Characterization of MDM Hydantoin via Stable Metabolite DMH: Population Modeling for Predicting Dermal Formaldehyde Formation” (Toxics, 2025).
“Also recorded” adds a separate entry of the source. Where two headings read alike, the source gives them in different places.

What was measured:
[1] = Toxicokinetics after transdermal application of gel containing 2% MDMH or DMH (plasma, non-compartmental analysis); assay type: in vivo; settings: rats; for bioavailability: plasma, DMH, TD application of 2% DMH gel (10.7 mg/kg) vs IV, read-out: Absolute bioavailability
Description: An API 4000 LC-MS/MS system (Applied Biosystems/MDS Sciex, Foster City, CA, USA) coupled with an Agilent 1100 HPLC (Agilent Technologies, Santa Clara, CA, USA) was used for determination of MDMH and DMH in rat plasma. The analytes were separated on a Synergi Fusion-RP 80 Å (150 × 2.0 mm, i.d., 4 µm;) with a Security Guard™ Cartridge AJ0-7556 (Phenomenex, Torrance, CA, USA), and the column oven temperature was maintained at 30 °C. An isocratic solvent system of distilled water and methanol (80:20, v/v) was used with a runtime of 7 min. The injection volume was 10 µL, and the flow rate was maintained at 0.2 mL/min.
For plasma sample preparation, formic acid was immediately added to blood samples upon collection to achieve a final concentration of 0.5% to prevent potential enzymatic degradation of MDMH, and all sample preparation procedures were conducted at ≤4 °C to minimize temperature-dependent decomposition of the analytes. For analysis, 50 μL of internal standard solution and 100 μL of methanol containing 0.5% formic acid (as precipitating solvent) were added to 50 μL of plasma, followed by vortex-mixing for 2 min. After centrifugation at 21,206× g for 10 min, 40 μL of supernatant was mixed with 160 μL of 0.5% formic acid in distilled water, and 10 μL was injected into the LC-MS/MS system.
All animal care and experiments were conducted to evaluate the toxicokinetics of MDMH and DMH according to the Guidelines for the Care and Use of Animal approved by the Ethics Committee for Treatment of Laboratory Animal at Daegu Catholic University (CUD-2019-020). To evaluate the toxicokinetics of MDMH and DMH in rats after intravenous injection (IV) or transdermal application (TD). Male Sprague-Dawley rats (9 weeks, body weight 260–310 g) (Hyochang Science Co., Daegu, Republic of Korea) were kept in plastic cages and fed regularly with water and feed. Rats were acclimated for a minimum of 1 week prior to the experiment under conditions keeping a 12 h light-dark cycle, a temperature of 23 ± 2 °C, and a relative humidity of 50 ± 10%. The rats were cannulated using polyethylene tubing (0.58 mm i.d., 0.96 mm o.d., Natsume, Tokyo, Japan) in the jugular vein after intraperitoneal injection at a dose of 0.9 mL/kg of Zoletil 50 (Virbac, Carros, France).
The transdermal application study was performed according to the “Organization for Economic Cooperation and Development guidelines for the in vivo skin absorption test”. Rats were anesthetized using inhaled isoflurane, and the back area of 6 × 6 cm^2 was removed using an electric clipper (808, Daito Electric Co., Osaka, Japan) 12 h before administration. The clipped skin of the rat was wiped with acetone without damaging the stratum corneum, and a resting period was allowed just before the study.
For TD application, a gel corresponding to approximately 5 mg/cm^2 was applied to an area of 5 × 5 cm^2 among the depilated areas. The doses of MDMH and DMH for the transdermal application study were 10.9 and 10.7 mg/kg on average, respectively. Although the regulatory limit for MDMH in cosmetics is 0.2%, a higher concentration (2%) was employed to ensure adequate systemic exposure and plasma concentrations suitable for accurate toxicokinetic characterization of these rapidly metabolized compounds. To prevent loss of the compounds due to volatilization and grooming, the application on the back site was adhered with gauze and pads. Blood samples were collected via the jugular vein in the MDMH application group at 0, 30 min, and 1, 2, 3, 4, 5, 6, 7, 8, 10, 12, and 24 h (13 points/head), and in the DMH application group at 0, 30 min, and 1, 2, 3, 4, 6, 8, 10, 12, and 24 h (11 points/head). Plasma samples were harvested by centrifugation of obtained blood for 10 min at 4000× g, and stored at −20 °C until analysis.
The toxicokinetic parameters were calculated by standard non-compartmental analysis using the non-linear least squares regression program Phoenix™ WinNonlin® 6.1 (Pharsight, Cary, NC, USA). […]

[2] = Stability of MDMH and DMH in rat plasma and processed samples; assay type: in vitro ADME; settings: n = 5; for Processed sample stability: autosampler at 4 °C for 24 h; for Short-term stability / Freeze–thaw stability / Long-term stability: rat plasma; for Short-term stability: room temperature (25 °C) for 4 h; for Freeze–thaw stability: three freeze–thaw cycles; for Long-term stability: −20 °C for 4 weeks
Description: Short-term stability of MDMH and DMH in rat plasma was evaluated at room temperature for 4 h. Long-term stability was assessed following storage at −20 °C for 4 weeks. Freeze–thaw stability was determined after three freeze–thaw cycles. Additionally, processed sample stability was evaluated in the autosampler at 4 °C for 24 h. Stability was considered acceptable when the mean deviation from theoretical concentrations was within ±15%.
Stability studies were conducted using five replicates of low and high quality control samples under various analytical conditions, with results shown in Table 3. Short-term stability was evaluated at room temperature (25 °C) for 4 h, showing mean recoveries within acceptable limits for both analytes. Long-term stability was assessed following storage at −20 °C for 4 weeks, with recoveries remaining within ±15% of theoretical concentrations. Freeze–thaw stability was evaluated after three freeze–thaw cycles. Processed sample stability in the autosampler at 4 °C for 24 h was also within acceptable ranges.

[3] = male, Sprague-Dawley, rat, topical or ocular, DMH in plasma after TD application of gel containing 2% DMH (10.7 mg/kg), n = 5

SMILES | bioavailability ([1]; male, Sprague-Dawley, rat, topical or ocular, n = 5) | bioavailability ([1]; male, Sprague-Dawley, rat, topical, n = 5) | AUC(0-t) [1, 3] | Cmax [1, 3] | Tmax [1, 3] | half-life [1, 3] | AUC(0-inf) ([1]; male, Sprague-Dawley, rat, topical or ocular, DMH in plasma after TD application of gel containing 2% DMH (10.7 mg/kg), n = 5, read-out: AUCinfinity) | Processed sample stability ([2]; High QC) | Processed sample stability ([2]; Low QC) | Short-term stability ([2]; High QC) | Short-term stability ([2]; Low QC) | Freeze–thaw stability ([2]; High QC) | Freeze–thaw stability ([2]; Low QC) | Long-term stability ([2]; High QC) | Long-term stability ([2]; Low QC) | parent compound plasma concentrations after transdermal application ([1]; MDMH in plasma after MDMH gel TD application, throughout the sampling period) | Fm to DMH (fraction metabolized) ([1]; ratio of DMH exposure after MDMH gel TD (10.9 mg/kg) to that after DMH gel TD)
CC1(C)NC(=O)NC1=O [DMH, 5,5-dimethylhydantoin] | 101 ± 18% | 101 ± 18% | 40510 ± 50 ng·h/mL | 6460 ± 1690 ng/mL | 2 ± 1.73 h | 5.36 ± 2.18 h | 51500 ± 5530 ng·h/mL | 113.2 ± 1.5% | 90.9 ± 6.9% | 101.0 ± 1.9% | 102.0 ± 1.4% | 93.2 ± 5.8% | 89.3 ± 3.8% | 112.0 ± 3.2% | 106.2 ± 4.3% |  | 
CC1(C)C(=O)NC(=O)N1CO [MDMH, 1-(Hydroxymethyl)-5,5-dimethylhydantoin] |  |  |  |  |  |  |  | 112.0 ± 3.5% | 98.9 ± 4.7% | 99.7 ± 1.3% | 102.6 ± 1.5% | 94.0 ± 1.8% | 90.1 ± 4.1% | 109.0 ± 3.9% | 110.4 ± 1.1% | below the quantification limit; also recorded: below quantification limits | 89.78 ± 24.15%
